# Experimental data as given in patent US20240423992A1, “BIOMARKERS FOR TREATING LIVER DISORDERS WITH THR-B AGONISTS AND RELATED USES” (Madrigal Pharmaceuticals, Inc., priority 2023, published 2024).
# System: adults with nonalcoholic fatty liver disease (NAFLD)/presumed nonalcoholic steatohepatitis (NASH)
# Test: 52-week Phase 3 trial (Example 1): thyroid hormone levels
# Assay type: in vivo, human
# Settings: for FT3 (not on thyroxine) LSM Difference / FT3 (thyroxine-treated) LSM Difference / FT3/rT3 (not on thyroxine) LSM Difference / FT3/rT3 (thyroxine-treated) LSM Difference / FT3/rT3 LSM Difference / FT3 LSM Difference / FT4 (not on thyroxine) LSM Difference in % CFB / FT4 (not on thyroxine) LSM Difference in CFB / FT4 (thyroxine-treated) LSM Difference in % CFB / FT4 (thyroxine-treated) LSM Difference in CFB / FT4 LSM Difference in % CFB / FT4 LSM Difference in CFB / TBG (not on thyroxine) LSM Difference / TBG (thyroxine-treated) LSM Difference / TBG LSM Difference / TSH (not on thyroxine) LSM Difference / TSH (thyroxine-treated) LSM Difference / TSH LSM Difference / rT3 (not on thyroxine) LSM Difference / rT3 (thyroxine-treated) LSM Difference / rT3 LSM Difference / FT3 (not on thyroxine) LSM CFB / FT3 (thyroxine-treated) LSM CFB / FT3/rT3 (not on thyroxine) LSM CFB / FT3/rT3 (thyroxine-treated) LSM CFB / FT3/rT3 LSM CFB / FT3 LSM CFB / FT4 (not on thyroxine) LSM % CFB / FT4 (not on thyroxine) LSM CFB / FT4 (thyroxine-treated) LSM % CFB / FT4 (thyroxine-treated) LSM CFB / FT4 LSM % CFB / FT4 LSM CFB / TBG (not on thyroxine) LSM CFB / TBG (thyroxine-treated) LSM CFB / TBG LSM CFB / TSH (not on thyroxine) LSM CFB / TSH (thyroxine-treated) LSM CFB / TSH LSM CFB / rT3 (not on thyroxine) LSM CFB / rT3 (thyroxine-treated) LSM CFB / rT3 LSM CFB: Week 52
# Description: A 52-week randomized, double-blind, placebo-controlled Phase 3 trial was conducted to evaluate the safety and effect of resmetirom, an oral, once-daily, liver-targeted thyroid hormone receptor-β selective agonist, on multiple biomarkers in adults with nonalcoholic fatty liver disease (NAFLD)/presumed nonalcoholic steatohepatitis (NASH). Patients were randomized to three double-blind arms (100 mg resmetirom, 80 mg resmetirom, or placebo) or one open-label arm (100 mg resmetirom). Common concomitant medications across the 4 arms were antidiabetes drugs (such as glucagon-like peptide-1 receptor agonists (GLP-1 RAs), metformin, pioglitazone, and sodium/glucose cotransporter-2 inhibitors (SGLT2i)) and drugs to manage dyslipidemia (statins).
# Sex hormone levels after 52 weeks of resmetirom treatment are shown in Table A. Thyroid hormone levels after 52 weeks of resmetirom treatment are reported in Table B.
# [1] = Resmetirom 80 mg DB vs Placebo DB
# [2] = Resmetirom 100 mg DB vs Placebo DB
smiles,measurement,setting,value
"CC(C)c1cc(Oc2c(Cl)cc(-n3nc(C#N)c(=O)[nH]c3=O)cc2Cl)n[nH]c1=O [Resmetirom, 2-[3,5-dichloro-4-[(6-oxo-5-propan-2-yl-1H-pyridazin-3-yl)oxy]phenyl]-3,5-dioxo-1,2,4-triazine-6-carbonitrile]",FT3 (not on thyroxine) LSM Difference,[1],0.1 ng/L
same,FT3 (thyroxine-treated) LSM Difference,[1],0.0 ng/L
same,FT3/rT3 (not on thyroxine) LSM Difference,[1],0.05
same,FT3/rT3 (thyroxine-treated) LSM Difference,[1],0.03
same,FT3/rT3 LSM Difference,[1],0.05
same,FT3 LSM Difference,[1],0.1 ng/L
same,FT4 (not on thyroxine) LSM Difference in % CFB,[1],−11.0%
same,FT4 (not on thyroxine) LSM Difference in CFB,[1],-0.1 ng/dL
same,FT4 (thyroxine-treated) LSM Difference in % CFB,[1],−10.2%
same,FT4 (thyroxine-treated) LSM Difference in CFB,[1],-0.1 ng/dL
same,FT4 LSM Difference in % CFB,[1],−10.8%
same,FT4 LSM Difference in CFB,[1],-0.1 ng/dL
same,TBG (not on thyroxine) LSM Difference,[1],-1.2 mg/L
same,TBG (thyroxine-treated) LSM Difference,[1],-0.6 mg/L
same,TBG LSM Difference,[1],-1.1 mg/L
same,TSH (not on thyroxine) LSM Difference,[1],0.0 mIU/L
same,TSH (thyroxine-treated) LSM Difference,[1],−0.3 mIU/L
same,TSH LSM Difference,[1],−0.0 mIU/L
same,rT3 (not on thyroxine) LSM Difference,[1],-3.3 ng/dL
same,rT3 (thyroxine-treated) LSM Difference,[1],-4.4 ng/dL
same,rT3 LSM Difference,[1],-3.4 ng/dL
same,FT3 (not on thyroxine) LSM CFB,Resmetirom 80 mg DB,-0.1 ng/L
same,FT3 (thyroxine-treated) LSM CFB,Resmetirom 80 mg DB,0.0 ng/L
same,FT3/rT3 (not on thyroxine) LSM CFB,Resmetirom 80 mg DB,0.04
same,FT3/rT3 (thyroxine-treated) LSM CFB,Resmetirom 80 mg DB,0.03
same,FT3/rT3 LSM CFB,Resmetirom 80 mg DB,0.04
same,FT3 LSM CFB,Resmetirom 80 mg DB,-0.0 ng/L
same,FT4 (not on thyroxine) LSM % CFB,Resmetirom 80 mg DB,−9.9%
same,FT4 (not on thyroxine) LSM CFB,Resmetirom 80 mg DB,-0.1 ng/dL
same,FT4 (thyroxine-treated) LSM % CFB,Resmetirom 80 mg DB,−6.4%
same,FT4 (thyroxine-treated) LSM CFB,Resmetirom 80 mg DB,-0.1 ng/dL
same,FT4 LSM % CFB,Resmetirom 80 mg DB,−9.6%
same,FT4 LSM CFB,Resmetirom 80 mg DB,-0.1 ng/dL
same,TBG (not on thyroxine) LSM CFB,Resmetirom 80 mg DB,-0.5 mg/L
same,TBG (thyroxine-treated) LSM CFB,Resmetirom 80 mg DB,1.5 mg/L
same,TBG LSM CFB,Resmetirom 80 mg DB,0.6 mg/L
same,TSH (not on thyroxine) LSM CFB,Resmetirom 80 mg DB,−0.3 mIU/L
same,TSH (thyroxine-treated) LSM CFB,Resmetirom 80 mg DB,−0.9 mIU/L
same,TSH LSM CFB,Resmetirom 80 mg DB,−0.4 mIU/L
same,rT3 (not on thyroxine) LSM CFB,Resmetirom 80 mg DB,-2.5 ng/dL
same,rT3 (thyroxine-treated) LSM CFB,Resmetirom 80 mg DB,-3.8 ng/dL
same,rT3 LSM CFB,Resmetirom 80 mg DB,-2.7 ng/dL
same,FT3 (not on thyroxine) LSM Difference,[2],0.0 ng/L
same,FT3 (thyroxine-treated) LSM Difference,[2],-0.0 ng/L
same,FT3/rT3 (not on thyroxine) LSM Difference,[2],0.05
same,FT3/rT3 (thyroxine-treated) LSM Difference,[2],0.04
same,FT3/rT3 LSM Difference,[2],0.05
same,FT3 LSM Difference,[2],0.0 ng/L
same,FT4 (not on thyroxine) LSM Difference in % CFB,[2],−15.4%
same,FT4 (not on thyroxine) LSM Difference in CFB,[2],-0.2 ng/dL
same,FT4 (thyroxine-treated) LSM Difference in % CFB,[2],−23.0%
same,FT4 (thyroxine-treated) LSM Difference in CFB,[2],-0.3 ng/dL
same,FT4 LSM Difference in % CFB,[2],−16.1%
same,FT4 LSM Difference in CFB,[2],-0.2 ng/dL
same,TBG (not on thyroxine) LSM Difference,[2],-0.3 mg/L
same,TBG (thyroxine-treated) LSM Difference,[2],-2.4 mg/L
same,TBG LSM Difference,[2],-0.5 mg/L
same,TSH (not on thyroxine) LSM Difference,[2],−0.1 mIU/L
same,TSH (thyroxine-treated) LSM Difference,[2],0.0 mIU/L
same,TSH LSM Difference,[2],−0.1 mIU/L
same,rT3 (not on thyroxine) LSM Difference,[2],-3.8 ng/dL
same,rT3 (thyroxine-treated) LSM Difference,[2],-5.5 ng/dL
same,rT3 LSM Difference,[2],-3.9 ng/dL
same,FT3 (not on thyroxine) LSM CFB,Resmetirom 100 mg DB,-0.1 ng/L
same,FT3 (thyroxine-treated) LSM CFB,Resmetirom 100 mg DB,-0.0 ng/L
same,FT3/rT3 (not on thyroxine) LSM CFB,Resmetirom 100 mg DB,0.04
same,FT3/rT3 (thyroxine-treated) LSM CFB,Resmetirom 100 mg DB,0.04
same,FT3/rT3 LSM CFB,Resmetirom 100 mg DB,0.04
same,FT3 LSM CFB,Resmetirom 100 mg DB,-0.1 ng/L
same,FT4 (not on thyroxine) LSM % CFB,Resmetirom 100 mg DB,−14.3%
same,FT4 (not on thyroxine) LSM CFB,Resmetirom 100 mg DB,-0.2 ng/dL
same,FT4 (thyroxine-treated) LSM % CFB,Resmetirom 100 mg DB,−19.2%
same,FT4 (thyroxine-treated) LSM CFB,Resmetirom 100 mg DB,-0.2 ng/dL
same,FT4 LSM % CFB,Resmetirom 100 mg DB,−14.9%
same,FT4 LSM CFB,Resmetirom 100 mg DB,-0.2 ng/dL
same,TBG (not on thyroxine) LSM CFB,Resmetirom 100 mg DB,1.4 mg/L
same,TBG (thyroxine-treated) LSM CFB,Resmetirom 100 mg DB,-0.2 mg/L
same,TBG LSM CFB,Resmetirom 100 mg DB,1.1 mg/L
same,TSH (not on thyroxine) LSM CFB,Resmetirom 100 mg DB,−0.3 mIU/L
same,TSH (thyroxine-treated) LSM CFB,Resmetirom 100 mg DB,−0.6 mIU/L
same,TSH LSM CFB,Resmetirom 100 mg DB,−0.4 mIU/L
same,rT3 (not on thyroxine) LSM CFB,Resmetirom 100 mg DB,-2.9 ng/dL
same,rT3 (thyroxine-treated) LSM CFB,Resmetirom 100 mg DB,-4.9 ng/dL
same,rT3 LSM CFB,Resmetirom 100 mg DB,-3.2 ng/dL
same,FT3 (not on thyroxine) LSM CFB,Resmetirom 100 mg OL,-0.1 ng/L
same,FT3 (thyroxine-treated) LSM CFB,Resmetirom 100 mg OL,-0.1 ng/L
same,FT3/rT3 (not on thyroxine) LSM CFB,Resmetirom 100 mg OL,0.05
same,FT3/rT3 (thyroxine-treated) LSM CFB,Resmetirom 100 mg OL,0.03
same,FT3/rT3 LSM CFB,Resmetirom 100 mg OL,0.04
same,FT3 LSM CFB,Resmetirom 100 mg OL,-0.2 ng/L
same,FT4 (not on thyroxine) LSM % CFB,Resmetirom 100 mg OL,−18.9%
same,FT4 (not on thyroxine) LSM CFB,Resmetirom 100 mg OL,-0.2 ng/dL
same,FT4 (thyroxine-treated) LSM % CFB,Resmetirom 100 mg OL,−14.8%
same,FT4 (thyroxine-treated) LSM CFB,Resmetirom 100 mg OL,-0.2 ng/dL
same,FT4 LSM % CFB,Resmetirom 100 mg OL,−16.1%
same,FT4 LSM CFB,Resmetirom 100 mg OL,-0.2 ng/dL
same,TBG (not on thyroxine) LSM CFB,Resmetirom 100 mg OL,0.7 mg/L
same,TBG (thyroxine-treated) LSM CFB,Resmetirom 100 mg OL,-1.0 mg/L
same,TBG LSM CFB,Resmetirom 100 mg OL,0.1 mg/L
same,TSH (not on thyroxine) LSM CFB,Resmetirom 100 mg OL,−0.2 mIU/L
same,TSH (thyroxine-treated) LSM CFB,Resmetirom 100 mg OL,0.4 mIU/L
same,TSH LSM CFB,Resmetirom 100 mg OL,0.2 mIU/L
same,rT3 (not on thyroxine) LSM CFB,Resmetirom 100 mg OL,-3.5 ng/dL
same,rT3 (thyroxine-treated) LSM CFB,Resmetirom 100 mg OL,-3.9 ng/dL
same,rT3 LSM CFB,Resmetirom 100 mg OL,-3.3 ng/dL
same,effect on active hormone free triiodothyronine (FT3),resmetirom arms,No effects
same,effect on thyroid-stimulating hormone (TSH),resmetirom arms,No effects
same,"prohormone FT4 levels, change from baseline",resmetirom arms,Minimal reductions from baseline
